pEC50, pIC50: −log10 of the molar value. Like-named read-outs stand apart in the source and are kept apart here.
How the values were obtained:
TNFα = experiment: Cot Monocyte TNFα Cell Based Assay
Human Cot = Human Cot (Homo sapiens (Human), UniProt P41279); experiment: High Throughput Cot Biochemical Assay
[1] = Homo sapiens, Monocyte, read-out: EC50 TNF, LPS-stimulated human monocytes, TNFα
[2] = IC50 HTRF, Cot HTRF (TR-FRET) biochemical assay
[3] = Homo sapiens, Monocyte, read-out: EC50 TNF, LPS-stimulated human monocytes, TNFα TR-FRET
[4] = IC50 HTRF, Cot HTRF (TR-FRET KinEASE) biochemical assay, 400 μM ATP
[5] = read-out: IC50 HTRF, Cot HTRF (TR-FRET) biochemical assay
[6] = read-out: EC50 TNF, LPS-stimulated human monocytes, TNFα

Human Cot, sequence (P41279 30-397): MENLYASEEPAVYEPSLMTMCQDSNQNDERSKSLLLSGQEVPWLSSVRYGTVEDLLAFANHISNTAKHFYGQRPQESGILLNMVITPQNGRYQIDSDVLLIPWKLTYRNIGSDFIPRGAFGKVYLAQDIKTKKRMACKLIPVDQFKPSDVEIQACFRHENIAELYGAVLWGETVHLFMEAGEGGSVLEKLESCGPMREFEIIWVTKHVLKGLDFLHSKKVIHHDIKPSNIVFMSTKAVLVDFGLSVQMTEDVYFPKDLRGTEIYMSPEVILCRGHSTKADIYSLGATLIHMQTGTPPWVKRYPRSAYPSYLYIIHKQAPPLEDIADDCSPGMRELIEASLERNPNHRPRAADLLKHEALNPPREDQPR

Row | Compound | pEC50 (TNFα; [1]) | pIC50 (Human Cot; [2]) | pIC50 (Human Cot; [5]) | other results
1 | C[C@@H](Nc1c(C#N)cnc2c(Cl)cc(N[C@@H](c3cccnc3)c3c[nH]nn3)cc12)c1ccccc1 [Example 255, 8-chloro-4-(((R)-1-phenylethyl)amino)-6-(((S)-pyridin-3-yl(1H-1,2,3-triazol-4-yl)methyl)amino)quinoline-3-carbonitrile] | 6.12 | 8.00 |  | 
2 | CC(C)(C)N1CCC(n2cc([C@@H](Nc3cc(Cl)c4ncc(C#N)c(Nc5ccc(F)c(Cl)c5)c4c3)c3ccc4c(c3)NCC4)nn2)CC1 [Example 51, (S)-6-(((1-(1-(tert-butyl)piperidin-4-yl)-1H-1,2,3-triazol-4-yl)(indolin-6-yl)methyl)amino)-8-chloro-4-((3-chloro-4-fluorophenyl)amino)quinoline-3-carbonitrile] | 5.81 | 7.26 |  | 
3 | Cc1nc(F)ccc1[C@H](Nc1cc(C#N)c2ncc(C#N)c(NCC(C)(C)C(F)(F)F)c2c1)c1cn(C23CC(C2)C3)nn1 [Example 833, (S)-6-(((1-(bicyclo[1.1.1]pentan-1-yl)-1H-1,2,3-triazol-4-yl)(6-fluoro-2-methylpyridin-3-yl)methyl)amino)-4-((3,3,3-trifluoro-2,2-dimethylpropyl)amino)quinoline-3,8-dicarbonitrile] |  |  |  | pEC50 (TNFα; [3]): 7.66; pIC50 (Human Cot; [4]): 8.70
4 | N#Cc1cnc2c(Cl)cc(NC(c3cccnc3)c3ccccn3)cc2c1Nc1ccc(F)c(Cl)c1 (stereo not drawn) [Example 376, 8-chloro-4-((3-chloro-4-fluorophenyl)amino)-6-((pyridin-2-yl(pyridin-3-yl)methyl)amino)-quinoline-3-carbonitrile] | < 6.00 |  | 6.74 | 
5 | CC(C)(C)CNc1c(C#N)cnc2c(Cl)cc(N[C@H](c3cn(C(C)(C)CF)nn3)c3cccc4ncccc34)cc12 [Example 694, (S)-8-chloro-6-(((1-(1-fluoro-2-methylpropan-2-yl)-1H-1,2,3-triazol-4-yl)(quinolin-5-yl)methyl)amino)-4-(neopentylamino)quinoline-3-carbonitrile] | 7.08 | 8.15 |  | 
6 | CC(C)(C)N1CCC(n2cc([C@@H](Nc3cc(Cl)c4ncc(C#N)c(Nc5ccc(F)c(Cl)c5)c4c3)c3ccc4c(c3)CNC4)nn2)CC1 [Example 57, (S)-6-(((1-(1-(tert-butyl)piperidin-4-yl)-1H-1,2,3-triazol-4-yl)(isoindolin-5-yl)methyl)amino)-8-chloro-4-((3-chloro-4-fluorophenyl)amino)quinoline-3-carbonitrile] | 5.22 | 7.22 |  | 
7 | CC[C@@H](Nc1c(C#N)cnc2c(F)cc(N[C@@H](c3ccc(F)nc3)c3cn(C4CC4)nn3)cc12)c1ccccc1 [Example 120, 6-(((S)-(-cyclopropyl-1H-1,2,3-triazol-4-yl)(6-fluoropyridin-3-yl)methyl-d)amino)-8-fluoro-4-(((R)-1-phenylpropyl)amino)quinolme-3-carbonitrile] |  |  | 8.30 | pEC50 (TNFα; [6]): 6.86
8 | COc1ccc([C@H](Nc2cc(Cl)c3ncc(C#N)c(NCC(C)(C)C)c3c2)c2cn(C3(C(F)(F)F)CC3)nn2)cn1 [Example 805, (S)-8-chloro-6-(((6-methoxypyridin-3-yl)(1-(1-(trifluoromethyl)cyclopropyl)-1H-1,2,3-triazol-4-yl)methyl)amino)-4-(neopentylamino)quinoline-3-carbonitrile] |  |  |  | pEC50 (TNFα; [3]): 6.11; pIC50 (Human Cot; [4]): 7.55
9 | C[C@@H](CF)n1cc([C@@H](Nc2cc(Cl)c3ncc(C#N)c(NCC(C)(C)C(F)(F)F)c3c2)c2cccc3c(=O)n(C)ccc23)nn1 [Example 784, 8-chloro-6-(((S)-(1-((S)-1-fluoropropan-2-yl)-1H-1,2,3-triazol-4-yl)(2-methyl-1-oxo-1,2-dihydroiso-quinolin-5-yl)methyl)amino)-4-((3,3,3-trifluoro-2,2-dimethylpropyl)amino)quinoline-3-carbonitrile] |  |  | 8.52 | pEC50 (TNFα; [6]): 7.29

— patent publication US11066414B2, “Cot modulators and methods of use thereof” (Gilead Sciences, Inc., priority 2015, dated 2021)
